Measured values reported in US20120122820A1, “PRODRUGS AND THE USE THEREOF” (Bayer Schering Pharma Aktiengesellschaft, priority 2007, published 2012).
≈ marks a conversion by molar mass, not a printed value. Where a name gives a salt, the structure may show the parent alone.

Assays:
[1] = system: heart rate of anesthetized rats; test: Influence on the heart rate of anesthetized rats; assay type: in vivo; conditions: maximum decrease in the first 30 min after i.v. bolus of 100 μg/kg of (A) or equivalent dosages; anesthetized male Wistar rats
Method: Male Wistar rats with a body weight above 250 g are employed. In the night before the experiment, the animals receive no feed but still have free access to drinking water. Preparation and investigations are carried out under Trapanal® anesthesia (100 mg/kg i.p.). Injection and infusion take place through a catheter in the jugular vein, and the blood pressure is recorded via a catheter in the femoral artery (transducer: Braun, Melsungen). After the preparation, the animals are connected to a continuous infusion of physiological saline solution to compensate fluid losses. Test substance or placebo solution are administered intravenously as bolus after an equilibration time of about 1 h. Heart rate and arterial blood pressure are recorded during the equilibration and over a period of at least 30 min after the bolus injection with the aid of a digital evaluation program.
Table 5 lists the maximum heart rate decrease in the first 30 min after an i.v. bolus of 100 μg/kg of the active substance (A) or of equivalent dosages of representative exemplary embodiments: […]

[2] = Oral pharmacokinetics in Wistar rats; assay type: in vivo; conditions: after oral administration (gavage), male Wistar rats
Method: (§1) On the day before administration of the substance, a catheter for obtaining blood is implanted in the jugular vein of the experimental animals (male Wistar rats, body weight 200-250 g) under Isofluran® anesthesia.
(§2) On the day of the experiment, a defined dose of the test substance is administered as solution into the stomach by gavage. Blood samples (8-12 time points) are taken through the catheter sequentially over the course of 24 h after administration of the substance. Plasma is obtained by centrifuging the samples in heparinized tubes. Acetonitrile is added to a defined plasma volume per time point to precipitate proteins. After centrifugation, test substance and, where appropriate, known cleavage products of the test substance in the supernatant are determined quantitatively using a suitable LC/MS-MS method.
The measured plasma concentrations are used to calculate pharmacokinetic parameters of the test substance and of the active ingredient compound (A) liberated therefrom, such as AUC, Cmax, T1/2 (half-life).

[3] = i.v. pharmacokinetics in Wistar rats; assay type: in vivo; conditions: after i.v. bolus administration, male Wistar rats
Method: as §1
as §2, with “tail vein using a Hamilton® glass syringe (bolus administration, duration of administration <10 s).” for “stomach by gavage.”
The measured plasma concentrations are used to calculate pharmacokinetic parameters of the test substance and of the active ingredient compound (A) liberated therefrom, such as AUC, Cmax, T1/2 (half-life) and CL (clearance).

[4] = Stability in buffer at various pH values; assay type: physicochemical
Method: 0.3 mg of the test substance is weighed into a 2 ml HPLC vial and 0.5 ml of acetonitrile or acetonitrile/DMSO (9:1) is added. The substance is dissolved by putting the sample vessel in an ultrasonic bath for about 10 seconds. Then 0.5 ml of the respective (buffer) solution is added, and the sample is again treated in the ultrasonic bath.
• pH 4: 1 liter of Millipore water is adjusted to pH 4.0 with 1 N hydrochloric acid; • pH 5: 0.096 mol of citric acid and 0.2 mol of sodium hydroxide ad 1 liter of water; • pH 7.4: 90.0 g of sodium chloride, 13.61 g of potassium dihydrogen phosphate and 83.35 g of 1 N sodium hydroxide solution are made up to 1 liter with water; this solution is then further diluted 1:10 with Millipore water. • pH 8: 0.013 mol of borax and 0.021 mol of hydrochloric acid ad 1 liter of water.
5 μl portions of the sample solution are analyzed by HPLC for their content of unchanged test substance, and of parent substance (A) produced, every hour over a period of 24 hours at 37° C. The percentage areas of the appropriate peaks are used for quantification.
HPLC method for Examples 1-21:
Agilent 1100 with DAD (G1314A), binary pump (G1312A), autosampler (G1329A), column oven (G1316A), thermostat (G1330A); column: Kromasil 100 C18, 60 mm×2.1 mm, 3.5 μm; column temperature: 30° C.; eluent A: water+5 ml of perchloric acid/liter, eluent B: acetonitrile; gradient: 0-1.0 min 98% A, 2% B; 1.0-9.0 min 2% A, 98% B; 9.0-13.0 min 2% A, 98% B; 13.0-13.5 min 98% A, 2% B; 13.5-15.0 min 98% A, 2% B; flow rate: 0.75 ml/min; UV detection: 210 nm.
HPLC method for Examples 22-40:
The ratios of the peak areas (F) at the respective time points in relation to the peak areas at the starting time are shown in Table 3 for representative exemplary embodiments: […]

[5] = Determination of the solubility (24 h shaking at room temperature, ultracentrifugation, HPLC); assay type: physicochemical; conditions: thermodynamic from solid
Method: The test substance is suspended in water or dilute hydrochloric acid (pH 4) [Examples 1-21] or in 5% strength aqueous dextrose solution [Examples 22-40]. This suspension is shaken at room temperature for 24 h. After ultracentrifugation at 224 000 g for 30 min, the supernatant is diluted with DMSO and analyzed by HPLC. A two-point calibration plot of the test compound in DMSO is used for quantification.
Agilent 1100 with DAD (G1315A), quat. pump (G1311A), autosampler CTC HTS PAL, degasser (G1322A) and column thermostat (G1316A); column: Phenomenex Gemini C18, 5 μm, 50 mm×2 mm; temperature: 40° C.; eluent A: water/phosphoric acid pH 2, eluent B: acetonitrile; flow rate: 0.7 ml/min; gradient: 0-0.5 min 85% A, 15% B; ramp 0.5-3 min 10% A, 90% B; 3-3.5 min 10% A, 90% B; ramp 3.5-4 min 85% A, 15% B; 4-5 min 85% A, 15% B.
Agilent 1100 with DAD (G1315A), quat. pump (G1311A), autosampler CTC HTS PAL, degasser (G1322A) and column thermostat (G1316A); column: VDSoptilab Kromasil 100 C18, 3.5 μm, 60 mm×2.1 mm; temperature: 30° C.; eluent A: water+5 ml of perchloric acid/liter, eluent B: acetonitrile; flow rate: 0.75 ml/min; gradient: 0-0.5 min 98% A, 2% B; ramp 0.5-4.5 min 10% A, 90% B; 4.5-6 min 10% A, 90% B; ramp 6.5-6.7 min 98% A, 2% B; 6.7-7.5 min 98% A, 2% B.

[6] = aqueous buffer, dilute hydrochloric acid (pH 4)
[7] = saline or isotonic, 5% strength aqueous dextrose solution

% test substance after 4 h [F(t = 4 h) × 100/F(t = 0 h)] ([4]; pH 4, 37° C.) [%] | % test substance after 24 h [F(t = 24 h) × 100/F(t = 0 h)] ([4]; pH 4, 37° C.) [%] | % test substance after 4 h [F(t = 4 h) × 100/F(t = 0 h)] ([4]; pH 8, 37° C.) [%] | % test substance after 24 h [F(t = 24 h) × 100/F(t = 0 h)] ([4]; pH 8, 37° C.) [%] | solubility at 24 h [5, 6] [µg/mL] | solubility at 24 h [5, 7] [µg/mL] | % test substance after 4 h [F(t = 4 h) × 100/F(t = 0 h)] ([4]; pH 7.4, 37° C.) [%] | % test substance after 24 h [F(t = 24 h) × 100/F(t = 0 h)] ([4]; pH 7.4, 37° C.) [%] | Structure (SMILES) | Heart rate decrease [1] [%] | Detectability of the test substance (prodrug) in plasma [2] | Detectability of the test substance (prodrug) in plasma [3]
– | – | – | – | 57 | – | – | – | N#Cc1c(N)nc(SCc2csc(-c3ccc(Cl)cc3)n2)c(C#N)c1-c1ccc(OCCOC(=O)CCC(=O)O)cc1 [Example 19, 4-(2-{4-[2-Amino-6-({[2-(4-chlorophenyl)-1,3-thiazol-4-yl]methyl}thio)-3,5-dicyanopyridin-4-yl]-phenoxy}ethoxy)-4-oxobutanoic acid hydrochloride] | 18 | no longer detectable in plasma even at the first measurement point | –
100 | 100 | – | – | – | > 500 | 0 | 0 | N#Cc1c(N)nc(SCc2csc(-c3ccc(Cl)cc3)n2)c(C#N)c1-c1ccc(OCCOC(=O)[C@@H](N)CCCN)cc1 [Example 22, 2-{4-[2-Amino-6-({[2-(4-chlorophenyl)-1,3-thiazol-4-yl]methyl}thio)-3,5-dicyanopyridin-4-yl]-phenoxy}ethyl L-ornithinate dihydrochloride] | 13 | no longer detectable in plasma even at the first measurement point | no longer detectable in plasma even at the first measurement point
– | – | – | – | < 1 | < 0.1 | – | – | N#Cc1c(N)nc(SCc2csc(-c3ccc(Cl)cc3)n2)c(C#N)c1-c1ccc(OCCO)cc1 [compound (A), 2-amino-6-({[2-(4-chlorophenyl)-1,3-thiazol-4-yl]methyl}thio)-4-[4-(2-hydroxy-ethoxy)phenyl]pyridine-3,5-dicarbonitrile, reference compound] | 24 | – | –

Second part, the molecule before the results:

Structure (SMILES) | % test substance after 4 h [F(t = 4 h) × 100/F(t = 0 h)] ([4]; pH 4, 37° C.) [%] | % test substance after 24 h [F(t = 24 h) × 100/F(t = 0 h)] ([4]; pH 4, 37° C.) [%] | % test substance after 4 h [F(t = 4 h) × 100/F(t = 0 h)] ([4]; pH 8, 37° C.) [%] | % test substance after 24 h [F(t = 24 h) × 100/F(t = 0 h)] ([4]; pH 8, 37° C.) [%] | solubility at 24 h [5, 6] [µg/mL] | solubility at 24 h [5, 7] [µg/mL] | % test substance after 4 h [F(t = 4 h) × 100/F(t = 0 h)] ([4]; pH 7.4, 37° C.) [%] | % test substance after 24 h [F(t = 24 h) × 100/F(t = 0 h)] ([4]; pH 7.4, 37° C.) [%] | Heart rate decrease [1] [%] | Detectability of the test substance (prodrug) in plasma [2] | Detectability of the test substance (prodrug) in plasma [3]
N#Cc1c(N)nc(SCc2csc(-c3ccc(Cl)cc3)n2)c(C#N)c1-c1ccc(OCCOC(=O)CN)cc1 [Example 5, 2-{4-[2-Amino-6-({[2-(4-chlorophenyl)-1,3-thiazol-4-yl]methyl}thio)-3,5-dicyanopyridin-4-yl]-phenoxy}ethyl glycinate] | 100 | 100 | 94 | 68 | – | – | – | – | 21 | no longer detectable in plasma even at the first measurement point | no longer detectable in plasma even at the first measurement point
CN(C)CC(=O)OCCOc1ccc(-c2c(C#N)c(N)nc(SCc3csc(-c4ccc(Cl)cc4)n3)c2C#N)cc1 [Example 15, 2-{4-[2-Amino-6-({[2-(4-chlorophenyl)-1,3-thiazol-4-yl]methyl}thio)-3,5-dicyanopyridin-4-yl]-phenoxy}ethyl (N,N-dimethyl)glycinate] | 93 | 91 | 90 | 76 | 240 (≈ 397 µM) | – | – | – | 21 | no longer detectable in plasma even at the first measurement point | no longer detectable in plasma even at the first measurement point
N#Cc1c(N)nc(SCc2csc(-c3ccc(Cl)cc3)n2)c(C#N)c1-c1ccc(OCCOP(=O)(O)O)cc1 [Example 1, 2-{4-[2-Amino-6-({[2-(4-chlorophenyl)-1,3-thiazol-4-yl]methyl}thio)-3,5-dicyanopyridin-4-yl]-phenoxy}ethyl dihydrogenphosphate] | 100 | 100 | 100 | 100 | – | – | – | – | 16 | – | no longer detectable in plasma even at the first measurement point
